Experimental data from patent US10576064B2, “Spiro[3H-indole-3,2′-pyrrolidin]-2(1H)-one compounds and derivatives as MDM2-P53 inhibitors” (Boehringer Ingelheim International GmbH, priority 2014, dated 2020).

Biological target: p53-MDM2 interaction (GST-MDM2 protein aa 23-117 / biotinylated p53 wt peptide) (Homo sapiens (Human), UniProt Q00987)
Assay: MDM2-p53 Inhibition AlphaScreen
Type: biochemical
Settings: 20 nM GST-MDM2 (aa 23-117), 20 nM biotinylated p53 wt peptide
From the text: MDM2-p53 Inhibition AlphaScreen

Point of comparison: CC(C)(C)CN1[C@H]2CN(c3ccc(C(=O)O)cc3)C(=O)[C@H]2[C@H](c2cccc(Cl)c2F)[C@]12C(=O)Nc1cc(Cl)ccc12 [Compound I-229], IC50 5 nM. Against it:
- Cc1cc(N2C[C@H]3[C@@H](C2=O)[C@H](c2cccc(Cl)c2F)[C@]2(C(=O)Nc4cc(Cl)ccc42)N3CC2CC2)ccc1C(=O)O [Compound I-261] — the same, 5 nM
- O=C(O)c1ccc(N2C[C@H]3[C@@H](C2=O)[C@H](c2cccc(Cl)c2F)[C@]2(C(=O)Nc4cc(Cl)ccc42)N3CC2CC2)cc1OC(F)(F)F [Compound I-259] — 2.2-fold higher, 11 nM
- O=C(O)c1ccc(N2C[C@@H]3[C@H](C2=O)[C@@H](c2cccc(Cl)c2F)[C@@]2(C(=O)Nc4cc(Cl)ccc42)N3CC2CCCCC2)cc1 [Compound I-235] — 200-fold higher, 980 nM
- O=C(O)c1ccc(N2CC[C@H]3[C@@H](C2=O)[C@H](c2cccc(Cl)c2F)[C@]2(C(=O)Nc4cc(Br)ccc42)N3CC2CC2)cc1 [Compound I-204] — 3-fold higher, 15 nM
- Cc1ccc2c(c1)NC(=O)[C@]21[C@@H](c2cccc(Cl)c2F)[C@@H]2C(=O)NCC[C@@H]2N1CC1CC1 [Compound I-23] — 58-fold higher, 290 nM
- CCOc1cccc(CN2[C@H]3CCN(Cc4ccc(C(=O)O)cc4)C(=O)[C@H]3[C@H](c3cccc(Cl)c3F)[C@]23C(=O)Nc2cc(Cl)ccc23)c1 [Compound I-212] — 4.2-fold higher, 21 nM
- O=C1OCC[C@H]2[C@@H]1[C@H](c1cccc(Cl)c1F)[C@]1(C(=O)Nc3cc(Cl)ccc31)N2CC1CC1 [Compound I-37] — 58-fold higher, 292 nM
- CCOc1cccc(CN2[C@@H]3CCN(c4ccc(C(=O)OC)cc4)C(=O)[C@@H]3[C@@H](c3cccc(Cl)c3F)[C@@]23C(=O)Nc2cc(Cl)ccc23)c1 [Compound I-112] — 660-fold higher, 3290 nM
- O=C(O)c1ccc(N2C[C@H]3[C@@H](C2=O)[C@H](c2cccc(Br)c2F)[C@]2(C(=O)Nc4cc(Cl)ccc42)N3CC2CC2)cc1F [Compound I-254] — 1.8-fold higher, 9 nM
- NC(=O)c1ccc(N2C[C@H]3[C@@H](C2=O)[C@H](c2cccc(Cl)c2F)[C@]2(C(=O)Nc4cc(Cl)ccc42)N3CC2CC2)cc1 [Compound I-280] — within 1.5-fold, 7 nM
- O=C(NO)c1ccc(N2CC[C@H]3[C@@H](C2=O)[C@H](c2cccc(Cl)c2F)[C@]2(C(=O)Nc4cc(Cl)ccc42)N3CC2CC2)cc1 [Compound I-274] — 4-fold higher, 20 nM
- O=C1NCC[C@H]2[C@@H]1[C@H](c1cccc(Cl)c1F)[C@]1(C(=O)Nc3cc(I)ccc31)N2CC1CC1 [Compound I-25] — 65-fold higher, 324 nM
- O=C(O)c1ccc(N2C[C@H]3[C@@H](C2=O)[C@H](c2cccc(Cl)c2F)[C@]2(C(=O)Nc4cc(Cl)ccc42)N3CC2CC2)cc1C(F)(F)F [Compound I-256] — 5.4-fold higher, 27 nM
- COC(=O)c1ccc(N2CC[C@H]3[C@@H](C2=O)[C@H](c2cccc(Cl)c2F)[C@]2(C(=O)Nc4cc(Cl)ccc42)N3CC2CC2)cc1 [Compound I-63] — 21-fold higher, 103 nM
- O=C(O)c1ccc(N2CC[C@H]3[C@@H](C2=O)[C@H](c2cccc(Cl)c2F)[C@]2(C(=O)Nc4cc(Cl)ccc42)N3CC2CCC2)cc1 [Compound I-198] — 5.4-fold higher, 27 nM
- O=C(O)c1ccc(N2CC[C@H]3[C@@H](C2=O)[C@H](c2cccc(Cl)c2F)[C@]2(C(=O)Nc4cc(Cl)ccc42)N3CC2CC2)cn1 [Compound I-183] — 2-fold higher, 10 nM
- O=C(O)c1ccc(CN2C[C@H]3[C@@H](C2=O)[C@H](c2cccc(Cl)c2F)[C@]2(C(=O)Nc4cc(Cl)ccc42)N3CC2CC2)cc1 [Compound I-242] — 7.4-fold higher, 37 nM

Test system: p53 wild-type vs. p53 mutant cell lines
Assay: not given
Settings: Carol et al. 2013; cited from earlier work

In the case of CCOc1cc(C(C)(C)C)ccc1C1=N[C@@](C)(c2ccc(Cl)cc2)[C@@](C)(c2ccc(Cl)cc2)N1C(=O)N1CCN(CCCS(C)(=O)=O)CC1 [RG-7112], the “cytotoxic activity, median IC50” value is listed as “lower median IC50 values for p53 wild-type vs. p53 mutant cell lines”.

Test system: solid tumor xenograft models
Assay: not given
Settings: Carol et al. 2013; cited from earlier work

For CCOc1cc(C(C)(C)C)ccc1C1=N[C@@](C)(c2ccc(Cl)cc2)[C@@](C)(c2ccc(Cl)cc2)N1C(=O)N1CCN(CCCS(C)(=O)=O)CC1 [RG-7112], the tumor growth inhibition is listed as “induced tumor growth inhibition”.

Test system: acute lymphoblastic leukemia (ALL) xenograft models with mixed-lineage leukemia (MLL) rearrangement
Assay: not given
Settings: Carol et al. 2013; cited from earlier work

In the case of CCOc1cc(C(C)(C)C)ccc1C1=N[C@@](C)(c2ccc(Cl)cc2)[C@@](C)(c2ccc(Cl)cc2)N1C(=O)N1CCN(CCCS(C)(=O)=O)CC1 [RG-7112], the “efficacy in xenograft models” value is given as “particularly efficacious”.

Test system: human acute myeloid leukemia (AML) and human prostate tumor xenograft models harboring p53 wild-type
Assay: not given
Settings: Tovar et al. 2013; cited from earlier work

For CCOc1cc(C(C)(C)C)ccc1C1=N[C@@](C)(c2ccc(Cl)cc2)[C@@](C)(c2ccc(Cl)cc2)N1C(=O)N1CCN(CCCS(C)(=O)=O)CC1 [RG7112], the “antiproliferative and proapoptotic activity” value is listed as “antiproliferative and proapoptotic activity of RG7112 has been observed”.
